The target of assay [1] is T1, 5-hydroxytryptamine receptor 2B (Homo sapiens, UniProt P41595). Kind of assay: Displacement of [3H]LSD from human 5HT2B receptor. A general note: In a radioligand displacement assay an active substance lowers the binding of a labelled ligand.
Assay [2] addresses Sodium-dependent noradrenaline transporter (Homo sapiens, UniProt P23975). Kind of assay: Displacement of [3H]nisoxetine from NET.
In assay [3] the target is T2, 5-hydroxytryptamine receptor 2A (Homo sapiens, UniProt P28223). The assay can be described thus: Displacement of [3H]ketanserin from human 5HT2A receptor.
T2 sequence (P28223 whole entry): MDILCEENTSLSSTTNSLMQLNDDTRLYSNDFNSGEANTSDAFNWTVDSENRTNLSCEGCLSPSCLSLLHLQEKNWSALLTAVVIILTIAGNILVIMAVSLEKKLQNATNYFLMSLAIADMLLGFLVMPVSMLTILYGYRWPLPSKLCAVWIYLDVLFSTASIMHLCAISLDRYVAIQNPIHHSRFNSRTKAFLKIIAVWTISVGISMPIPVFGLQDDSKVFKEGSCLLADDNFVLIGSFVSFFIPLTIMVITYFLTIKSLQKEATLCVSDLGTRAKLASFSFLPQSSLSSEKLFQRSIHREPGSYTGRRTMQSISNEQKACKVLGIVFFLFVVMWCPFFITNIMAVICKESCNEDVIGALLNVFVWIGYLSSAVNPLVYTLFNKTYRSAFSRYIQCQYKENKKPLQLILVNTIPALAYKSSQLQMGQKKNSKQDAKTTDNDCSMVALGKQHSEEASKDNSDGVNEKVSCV
Assay [4] has as its target Sodium-dependent dopamine transporter (Homo sapiens, UniProt Q01959). Kind of assay: Displacement of [3H]WIN-35428 from DAT.
For assay [5], the target named is T2, 5-hydroxytryptamine receptor 2A. Kind of assay: Agonist activity at human 5HT2A receptor expressed in HEK293 cells assessed as calcium flux by FLIPR assay.
Assay [6] has as its target Sodium-dependent serotonin transporter (Homo sapiens, UniProt P31645). The assay can be described thus: Displacement of [3H]citalopram from SERT.
Assay [7] deals with T1, 5-hydroxytryptamine receptor 2B. The assay can be described thus: Agonist activity at human 5HT2B receptor expressed in HEK293 cells assessed as calcium flux by FLIPR assay. Background: Calcium flux is commonly read through the fluorescence of an indicator in the cells.
In assay [8] the target is T3, 5-hydroxytryptamine receptor 2C (Homo sapiens, UniProt P28335).
T3 sequence (P28335 whole entry): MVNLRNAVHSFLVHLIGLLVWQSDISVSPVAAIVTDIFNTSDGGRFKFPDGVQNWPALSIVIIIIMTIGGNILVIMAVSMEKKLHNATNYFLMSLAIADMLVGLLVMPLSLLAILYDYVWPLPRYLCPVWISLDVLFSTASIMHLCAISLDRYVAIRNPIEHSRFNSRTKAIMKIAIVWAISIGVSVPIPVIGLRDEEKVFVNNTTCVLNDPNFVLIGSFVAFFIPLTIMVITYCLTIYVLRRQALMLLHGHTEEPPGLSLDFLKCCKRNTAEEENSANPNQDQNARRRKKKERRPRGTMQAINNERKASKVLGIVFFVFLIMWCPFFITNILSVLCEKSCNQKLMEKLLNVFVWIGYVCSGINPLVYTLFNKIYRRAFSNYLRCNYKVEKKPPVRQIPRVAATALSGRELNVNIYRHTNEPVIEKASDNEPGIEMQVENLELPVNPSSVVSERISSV
Kind of assay: Displacement of [3H]mesulergine from 5HT2C receptor.

Assay [9] addresses T3, 5-hydroxytryptamine receptor 2C. Kind of assay: Agonist activity at human 5HT2C receptor expressed in HEK293 cells assessed as calcium flux by FLIPR assay.

Where a name gives a salt, the structure may show the parent alone. Where only a bound is given, the exact number is not on record here.

Sequence of Sodium-dependent dopamine transporter (Q01959 whole entry): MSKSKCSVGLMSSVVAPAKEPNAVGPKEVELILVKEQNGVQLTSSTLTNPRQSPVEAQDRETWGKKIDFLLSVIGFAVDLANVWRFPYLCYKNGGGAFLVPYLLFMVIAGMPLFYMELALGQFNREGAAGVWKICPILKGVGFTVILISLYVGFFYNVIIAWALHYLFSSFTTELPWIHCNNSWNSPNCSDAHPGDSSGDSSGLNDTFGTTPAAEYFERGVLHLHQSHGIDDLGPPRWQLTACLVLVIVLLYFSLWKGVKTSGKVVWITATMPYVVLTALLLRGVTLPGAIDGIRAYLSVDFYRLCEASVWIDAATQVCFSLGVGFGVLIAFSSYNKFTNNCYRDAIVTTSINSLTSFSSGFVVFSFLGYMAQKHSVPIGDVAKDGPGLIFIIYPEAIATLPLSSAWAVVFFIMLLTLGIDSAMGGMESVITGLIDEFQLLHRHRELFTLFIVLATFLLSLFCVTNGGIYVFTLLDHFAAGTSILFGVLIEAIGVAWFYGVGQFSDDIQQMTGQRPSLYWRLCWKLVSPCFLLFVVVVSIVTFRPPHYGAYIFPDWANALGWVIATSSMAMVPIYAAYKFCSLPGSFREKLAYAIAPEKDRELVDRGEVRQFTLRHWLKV
Sequence of Sodium-dependent serotonin transporter (P31645 whole entry): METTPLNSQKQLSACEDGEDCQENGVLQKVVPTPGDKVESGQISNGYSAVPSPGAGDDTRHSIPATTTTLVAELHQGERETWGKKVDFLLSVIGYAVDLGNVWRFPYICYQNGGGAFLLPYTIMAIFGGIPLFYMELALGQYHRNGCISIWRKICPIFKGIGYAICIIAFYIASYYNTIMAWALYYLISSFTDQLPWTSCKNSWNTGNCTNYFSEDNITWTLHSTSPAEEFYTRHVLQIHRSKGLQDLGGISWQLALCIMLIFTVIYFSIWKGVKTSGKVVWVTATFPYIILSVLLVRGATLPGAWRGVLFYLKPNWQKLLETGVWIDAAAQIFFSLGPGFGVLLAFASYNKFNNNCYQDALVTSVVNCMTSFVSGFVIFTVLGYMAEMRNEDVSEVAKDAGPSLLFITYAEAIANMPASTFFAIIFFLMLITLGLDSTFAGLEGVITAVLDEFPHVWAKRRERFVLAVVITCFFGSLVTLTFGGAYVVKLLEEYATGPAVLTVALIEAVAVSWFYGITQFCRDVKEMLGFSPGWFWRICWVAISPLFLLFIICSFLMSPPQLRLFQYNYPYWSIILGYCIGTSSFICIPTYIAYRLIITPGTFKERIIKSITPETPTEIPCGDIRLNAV
T1 sequence (P41595 whole entry): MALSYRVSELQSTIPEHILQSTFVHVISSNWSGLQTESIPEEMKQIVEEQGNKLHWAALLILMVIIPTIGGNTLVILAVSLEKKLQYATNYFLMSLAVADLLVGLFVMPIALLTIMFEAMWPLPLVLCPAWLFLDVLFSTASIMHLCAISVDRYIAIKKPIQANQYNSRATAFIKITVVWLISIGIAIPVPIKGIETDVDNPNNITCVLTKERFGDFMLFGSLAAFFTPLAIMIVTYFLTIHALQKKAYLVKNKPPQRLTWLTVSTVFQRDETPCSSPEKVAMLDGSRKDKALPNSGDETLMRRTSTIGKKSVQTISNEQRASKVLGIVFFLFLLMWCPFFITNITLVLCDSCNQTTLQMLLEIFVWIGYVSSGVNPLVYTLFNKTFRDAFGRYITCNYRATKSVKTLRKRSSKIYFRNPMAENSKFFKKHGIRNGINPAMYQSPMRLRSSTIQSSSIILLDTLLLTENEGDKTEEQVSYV
Sequence of Sodium-dependent noradrenaline transporter (P23975 whole entry): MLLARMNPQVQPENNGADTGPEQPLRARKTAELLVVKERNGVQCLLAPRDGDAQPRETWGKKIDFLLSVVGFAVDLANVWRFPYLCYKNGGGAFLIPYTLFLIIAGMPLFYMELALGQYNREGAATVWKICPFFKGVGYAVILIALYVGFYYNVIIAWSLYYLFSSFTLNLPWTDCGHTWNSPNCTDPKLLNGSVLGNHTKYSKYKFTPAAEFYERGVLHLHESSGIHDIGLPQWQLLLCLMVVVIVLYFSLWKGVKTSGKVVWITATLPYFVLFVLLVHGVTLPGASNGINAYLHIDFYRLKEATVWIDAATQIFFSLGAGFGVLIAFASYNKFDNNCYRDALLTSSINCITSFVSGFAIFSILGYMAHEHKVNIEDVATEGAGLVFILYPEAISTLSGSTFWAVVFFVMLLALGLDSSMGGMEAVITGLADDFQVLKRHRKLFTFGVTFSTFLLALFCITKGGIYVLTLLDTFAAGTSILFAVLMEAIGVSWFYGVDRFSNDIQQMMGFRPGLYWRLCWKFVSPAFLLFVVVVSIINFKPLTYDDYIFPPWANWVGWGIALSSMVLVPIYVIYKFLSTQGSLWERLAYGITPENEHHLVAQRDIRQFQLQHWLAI

On to `Cc1cccc([C@H]2C[C@@H]2CN)c1` (relative stereo) [trans-[2-(3-Methylphenyl)cyclopropyl]methylamine Hydrochloride], for which the Ki (commonly a dissociation constant, usually derived from enzyme kinetics or from competition with a known ligand) in [1] was 85 nM; in assay [2], greater than 10 µM; in [3], 1850 nM; in [4], 5.4 µM; in [6], 5440 nM; in assay [8], 268 nM. Moreover, the EC50 (commonly the midpoint of the concentration-response curve) in assay [5] was determined as 585 nM; in assay [7], 65 nM; in [9] it was 4.8 nM.

`NC[C@H]1C[C@@H]1c1ccc(F)cc1` (relative stereo) [trans-[2-(4-Fluorophenyl)cyclopropyl]methylamine Hydrochloride]: the Ki came to 89 nM in [1]; 6.78 µM in assay [2]; 2780 nM in assay [3]; 3.26 µM in assay [4]; 2710 nM in assay [6]; 242 nM in assay [8]. The results for the EC50 in assay [5], in assay [7] and in assay [9] were 508 nM, 21 nM and 5.4 nM, respectively.

For `NC[C@H]1C[C@@H]1c1ccc(Cl)cc1Cl` (relative stereo) [trans-[2-(2,4-Dichlorophenyl)cyclopropyl]methylamine Hydrochloride], the EC50 in assay [5] stood at 51 nM; in [7], 83 nM; in assay [9], 18 nM.

As for `COc1ccccc1[C@H]1C[C@@H]1CN` (relative stereo) [trans-[2-(2-Methoxyphenyl)cyclopropyl]methylamine Hydrochloride], the EC50 turned out to be 2170 nM in assay [5], 199 nM in [7] and 26 nM in assay [9].

Consider `Cc1ccc(Cl)c([C@H]2C[C@@H]2CN)c1F` [trans-[2-(6-Chloro-2-fluoro-3-methylphenyl)cyclopropyl]methylamineHydrochloride], for which the results for the EC50 in assay [5], in assay [7] and in [9] were 330 nM, 116 nM and 13 nM, respectively.

Regarding `NC[C@H]1C[C@@H]1c1ccc(F)cc1Cl` (relative stereo) [trans-[2-(2-Chloro-4-fluorophenyl)cyclopropyl]methylamine Hydrochloride], the Ki in assay [1] was 16 nM; in assay [2], greater than 10 µM; in assay [3], 254 nM; in assay [4], greater than 10 µM; in assay [6] it was 1040 nM; in assay [8] it was 203 nM. Besides, the EC50 in assay [5] came out at 91 nM; in [7], 22 nM; in assay [9], 3 nM.

Regarding `NC[C@H]1C[C@@H]1c1ccc(Cl)cc1F` (relative stereo) [trans-[2-(4-Chloro-2-fluorophenyl)cyclopropyl]methylamine Hydrochloride], the EC50 came out at 774 nM in [5], 459 nM in assay [7] and 128 nM in assay [9].

`COc1cccc([C@H]2C[C@@H]2CN)c1` (relative stereo) [trans-[2-(3-Methoxyphenyl)cyclopropyl]methylamine Hydrochloride]: the half-maximal effective concentration (EC50) was found to be 613 nM in assay [5], 75 nM in assay [7] and 16 nM in assay [9].

Turning to `Cc1ccc([C@H]2C[C@@H]2CN)cc1` (relative stereo) [trans-[2-(4-Methylphenyl)cyclopropyl]methylamine Hydrochloride], the EC50 in assay [5] came to 1930 nM; in [7], 37 nM; in assay [9], 135 nM.

With `NC[C@H]1C[C@@H]1c1cccc(F)c1F` (relative stereo) [trans-[2-(2,3-Difluorophenyl)cyclopropyl]methylamine Hydrochloride], the EC50 is greater than 5000 nM in assay [5], 366 nM in assay [7] and 99 nM in assay [9].

The values above are taken from BindingDB's records for doi:10.1021/jm801354e (University of Illinois At Chicago, 2009).
